The numbers were not newly measured in article PMC3293351, “Pharmacokinetics and Excretion Studies on CDRI-85/92, an Antiulcer Proton Pump Inhibitor” (Scientia Pharmaceutica, 2011), which cites them from elsewhere.

One data set has as its system gastric proton pump. The following applies: cited from earlier work.
Details of data set [1]: method as in PMID 12563304. Particulars: in rats; cited from earlier work.

In the case of `COc1ccc2[nH]c([S+]([O-])Cc3ncc(C)c(OC)c3C)nc2c1` (centres unmarked) [Omeprazole, reference compound], the “Type of proton pump inhibition” value in the data set with gastric proton pump is listed as “irreversible proton pump inhibitor”. Moreover, the half-life result in data set [1] is reported as “less than 5 min”.
